Assays:
[1] = biological target: T1, Ba/F3 ETV6-FGFR4 cells (Homo sapiens, UniProt P22455); experiment: Inhibition of cell proliferation (CCK-8), Ba/F3 ETV6-FGFR4 cells; assay type: cell-based; details: 72 hours of incubation, read-out: Ba/F3 ETV6-FGFR4 IC50
T1 construct: fused on or other part: N-terminal part of ETV6 (TEL), the oligomerising partner that makes the FGFR4 kinase constitutively active; P41212 (Transcription factor ETV6)
Experimental: (§1) Compounds were assayed for inhibiting cell proliferation, and the specific method was as follows: • 1. Cells were cultured to a logarithmic growth phase, pipetted evenly, transferred to a 15 mL centrifuge tube, and centrifuged at 1000 rpm at room temperature for 4 minutes; • 2. The supernatant was discarded; 5 mL of complete medium was added and pipetted evenly; 10 μL of cell suspension was weighed, mixed well with 10 μL of 0.4% trypan blue, and counted under a cell counter; the proportion of living cells was ensured to be above 90%; • 3. The cell suspension was seeded into a 96-well plate (80 μL of cell suspension per well) according to the conditions shown in Table 5; in the outer 36 wells of the 96-well plate, no cells were added but only sterile water was added; only the inner 60 wells were used for cell assay and control; • 4. 5× compound dilution: the compounds were serially diluted 4-fold to give a total of 9 concentrations; 80-fold overall dilution was completed with complete medium, the resulting concentration was 5 times the final drug concentration, and DMSO concentration was 1.25%; • 5. 20 μL of the corresponding compounds with different concentrations were added to each well of assay wells of the 96-well plate; 20 μL of complete medium was added to positive and negative control wells and shaken well; and the final concentration of DMSO in each well was 0.25%; • 6. After 72 hours of incubation, 10 μL of CCK-8 reagent was added to each well and further incubated at 37° C. for 1-2 hours; and the OD value was read at 450 nm; 7. Cell survival rate (%)=[(As−Ab)/(Ac−Ab)]*100% • As: Assay well (medium containing cells, CCK-8, compound) • Ac: Control well (medium containing cells, CCK-8) • Ab: Blank well (medium without cell and compound, CCK-8) • 8. The values were imported into Graphpad Prism 5 software for IC50 calculation.

[2] = biological target: FGFR4 V550L kinase (Homo sapiens, UniProt P22455, V550L); experiment: Inhibition of FGFR4 V550L mutant kinase activity (ULight-labeled PolyGT, EU665/EU615 reading); assay type: biochemical; details: FGFR4 V550L kinase 1 nM, ATP 10 μM, enzymatic reaction 2 hours
Experimental: (§2) Assay of activity of small molecule compounds on inhibiting FGFR4 kinase and FGFR4 V550L mutant kinase. The assay method was as follows:
(§3) 1) Dilution of Compounds:
(§4) In a 96-well plate a, the compounds were serially diluted 3-fold with DMSO to form 11 concentrations, and the 12th concentration was pure DMSO (as a positive control); In a new 96-well plate b, the above solutions were diluted 25-fold with ultrapure water (DMSO concentration was 4%).
(§5) 2) Transferring Compounds to a 384-Well Plate:
(§6) The above solutions of compounds diluted with ultrapure water in the 96-well plate b were pipetted into corresponding wells of a 384-well plate.
(§7) 3) Adding 4× kinase solution: 2.5 μl of the above 4× kinase solutions were pipetted with a multi-channel pipette into corresponding reaction wells of the 384-well plate, and the mixture was mixed well and pre-reacted at room temperature for 5 minutes.
(§8) 4) Adding 2× substrate/ATP mixture: 5 μl of the above 2× substrate/ATP mixtures were pipetted with a multi-channel pipette into corresponding reaction wells of the 384-well plate.
(§9) 5) Negative control: negative control wells were set up in the 384-well plate by adding 2.5 μl of 4× substrate, 2.5 μl of 4× enzyme solution, 2.5 μl of 1× kinase Assay Buffer and 2.5 μl of ultrapure water containing 4% DMSO to each well.
(§10) 6) Centrifuging, mixing well, and reacting at room temperature in the dark for 2 hours.
(§11) 7) Terminating the Enzymatic Reaction:
(§12) 5 μl of the above 4× stop solutions were pipetted into corresponding wells of the 384-well plate, and the mixture was centrifuged, mixed well, and then reacted at room temperature for 5 minutes.
(§13) 8) Development of the Reaction:
(§14) 5 μl of the above 4× detection solutions were pipetted into corresponding wells of the 384-well plate, and the mixture was centrifuged, mixed well, and then reacted at room temperature for 1 hour.
(§15) 9) The 384-well plate was placed into a plate reader, and the signal was detected using the appropriate program.
(§16) 10) Analysis of IC50: Reading of well=10000*EU665 value/EU615 value Inhibition rate=(reading of positive control well−reading of assay well)/(reading of positive control well−reading of negative control well)*100%
(§17) The corresponding IC50 can be calculated by inputting the drug concentrations and corresponding inhibition rates into GraphPad Prism 5 and processing.
Assay Conditions for Screening FGFR4 V550L Kinase Activity Inhibitory Molecule:
The final concentration of FGFR4 V550L kinase in the reaction system was 1 nM, the final concentration of ATP was 10 μM, the final concentration of substrate ULight™-labeled PolyGT was 100 nM, and the time for enzymatic reaction was 2 hours.
The highest final concentration of the compound in the reaction system was 2.5 μM. After seral 3-fold dilution, there were 11 concentrations in total, and the lowest final concentration was 0.042 nM. The final concentration of DMSO was 1%.

[3] = biological target: T2, Ba/F3 ETV6-FGFR4-V550L cells (Homo sapiens, UniProt P22455, V550L, cells depend on it); experiment: Inhibition of cell proliferation (CCK-8), Ba/F3 ETV6-FGFR4-V550L cells; assay type: cell-based; details: 72 hours of incubation, read-out: Ba/F3 ETV6-FGFR4-V550L IC50
T2 construct: fused on or other part: N-terminal part of ETV6 (TEL), the oligomerising partner of the fusion; already named as the first entry; P41212 (Transcription factor ETV6)
Experimental: as §1

[4] = biological target: FGFR4 kinase (Homo sapiens, UniProt P22455); experiment: Inhibition of FGFR4 kinase activity (ULight-labeled JAK-1 peptide, EU665/EU615 reading); assay type: biochemical; details: FGFR4 kinase 3.85 nM, ATP 100 μM, enzymatic reaction 2 hours
Experimental: as §2, §3, §4, §5, §6, §7, §8, §9, §10, §11, §12, §13, §14, §15, §16, §17
Assay Conditions for Screening FGFR4 Kinase Activity Inhibitory Molecule:
The final concentration of FGFR4 kinase in the reaction system was 3.85 nM, the final concentration of ATP was 100 μM, the final concentration of substrate ULight™-labeled JAK-1 (Tyr1023) Peptide was 100 nM, and the time for enzymatic reaction was 2 hours.
The highest final concentration of the compound in the reaction system was 2.5 μM. After serial 3-fold dilution, there were 11 concentrations in total, and the lowest final concentration was 0.042 nM. The final concentration of DMSO was 1%.

T1 sequence (P22455 whole entry, change not shown, the tested form may be a part): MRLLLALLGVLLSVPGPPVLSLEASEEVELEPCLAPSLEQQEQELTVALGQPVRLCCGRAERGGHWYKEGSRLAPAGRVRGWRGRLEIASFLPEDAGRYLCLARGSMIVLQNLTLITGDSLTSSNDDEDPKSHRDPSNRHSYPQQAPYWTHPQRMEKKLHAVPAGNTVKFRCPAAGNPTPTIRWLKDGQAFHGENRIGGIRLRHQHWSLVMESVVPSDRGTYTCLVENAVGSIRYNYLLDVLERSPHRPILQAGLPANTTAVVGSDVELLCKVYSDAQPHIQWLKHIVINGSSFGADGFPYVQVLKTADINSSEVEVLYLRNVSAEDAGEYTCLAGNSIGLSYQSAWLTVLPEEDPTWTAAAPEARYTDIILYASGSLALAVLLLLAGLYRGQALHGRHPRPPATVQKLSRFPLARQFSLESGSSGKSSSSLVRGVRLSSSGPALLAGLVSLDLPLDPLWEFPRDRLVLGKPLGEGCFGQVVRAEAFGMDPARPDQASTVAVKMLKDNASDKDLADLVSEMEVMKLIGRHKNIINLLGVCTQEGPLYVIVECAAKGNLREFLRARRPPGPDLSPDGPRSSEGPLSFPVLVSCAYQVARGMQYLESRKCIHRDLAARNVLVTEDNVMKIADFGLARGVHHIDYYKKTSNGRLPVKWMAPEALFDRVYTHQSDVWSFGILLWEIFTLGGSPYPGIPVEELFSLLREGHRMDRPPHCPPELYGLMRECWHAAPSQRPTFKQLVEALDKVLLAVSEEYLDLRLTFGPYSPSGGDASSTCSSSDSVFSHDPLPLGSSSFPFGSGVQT
FGFR4 kinase, sequence (P22455 22-802): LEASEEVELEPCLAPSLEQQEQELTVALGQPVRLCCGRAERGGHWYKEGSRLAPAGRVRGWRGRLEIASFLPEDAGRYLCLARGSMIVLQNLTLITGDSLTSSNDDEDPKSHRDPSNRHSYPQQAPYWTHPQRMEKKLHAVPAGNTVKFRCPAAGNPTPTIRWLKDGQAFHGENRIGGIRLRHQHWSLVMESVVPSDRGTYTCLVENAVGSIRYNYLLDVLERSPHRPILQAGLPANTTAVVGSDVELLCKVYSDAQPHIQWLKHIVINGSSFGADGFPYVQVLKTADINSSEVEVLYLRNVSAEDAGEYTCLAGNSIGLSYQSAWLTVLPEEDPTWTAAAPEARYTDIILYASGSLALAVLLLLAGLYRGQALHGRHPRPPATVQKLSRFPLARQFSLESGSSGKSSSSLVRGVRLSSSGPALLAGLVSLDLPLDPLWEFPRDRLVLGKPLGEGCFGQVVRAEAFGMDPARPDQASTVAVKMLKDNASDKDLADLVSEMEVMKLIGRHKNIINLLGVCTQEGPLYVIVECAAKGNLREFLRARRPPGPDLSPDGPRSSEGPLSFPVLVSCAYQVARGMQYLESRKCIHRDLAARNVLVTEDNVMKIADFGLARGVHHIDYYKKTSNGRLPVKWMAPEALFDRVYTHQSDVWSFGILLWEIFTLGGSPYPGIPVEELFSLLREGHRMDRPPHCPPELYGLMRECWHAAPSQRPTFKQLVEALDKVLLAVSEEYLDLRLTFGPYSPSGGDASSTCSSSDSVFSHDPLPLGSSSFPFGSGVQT
T2 sequence (P22455 whole entry V550L, the tested form may be a part): as the sequence (P22455 whole entry, change not shown, the tested form may be a part) above, with V550L counted along it
FGFR4 V550L kinase, sequence (P22455 22-802 V550L): as the sequence (P22455 22-802) above, with V529L counted along it

SMILES	GI50 [1] [nM]	IC50 [2] [nM]	GI50 [3] [nM]	IC50 [4] [nM]
C=CC(=O)Nc1cc(N2CCC(N3CCN(C)C(=O)C3)CC2)ccc1Nc1ncc(C#N)c(Nc2ccccc2OC(C)C)n1 [Example 43, N-(2-((5-cyano-4-((2-isopropoxyphenyl)amino)pyrimidin-2-yl)amino)-5-(4-(4-methyl-3-oxopiperazin-1-yl)piperidin-1-yl)phenyl) acrylamide]	≤ 10	10 to 50	≤ 10	10 to 50
C=CC(=O)Nc1cc(N2CCC(N(C)CCCSC)CC2)ccc1Nc1ncc(C#N)c(Nc2ccccc2OC(C)C)n1 [Example 74]	≤ 10	≤ 10	10 to 50	≤ 10
C=CC(=O)Nc1cc(N2CCC(N3CCN(C)CC3)CC2)ccc1Nc1ncc(C#N)c(Nc2ccc(F)cc2OC(C)C)n1 [Example 39, N-(2-((5-cyano-4-((4-fluoro-2-isopropoxyphenyl)amino)pyrimidin-2-yl)amino)-5-(4-(4-methylpiperazin-1-yl)piperidin-1-yl)phenyl) acrylamide]	≤ 10	≤ 10	≤ 10	≤ 10
C=CC(=O)Nc1cc(N2CCN(CC)CC2)ccc1Nc1ncc(C#N)c(Nc2cc(C#N)ccc2OC(C)C)n1 [Example 25, N-(2-((5-cyano-4-((5-cyano-2-isopropoxyphenyl)amino)pyrimidin-2-yl)amino)-5-(4-ethylpiperazin-1-yl)phenyl) acrylamide]	10 to 50	10 to 50	10 to 50	50 to 100
C=CC(=O)Nc1cc(N2CCC(N(C)C3CCOCC3)CC2)ccc1Nc1ncc(C#N)c(Nc2ccccc2OC(C)C)n1 [Example 78, N-(2-((5-cyano-4-((2-isopropoxyphenyl)amino)pyrimidin-2-yl)amino)-5-(4-(methyl(tetrahydro-2H-pyran-4-yl)amino)piperidin-1-yl)phenyl) acrylamide]	≤ 10	≤ 10	≤ 10	≤ 10
C=CC(=O)Nc1cc(N2CCC(N3CCN(C)CC3=O)CC2)c(F)cc1Nc1ncc(C#N)c(Nc2ccccc2OC(C)C)n1 [Example 48, N-(2-((5-cyano-4-((2-isopropoxyphenyl)amino)pyrimidin-2-yl)amino)-4-fluoro-5-(4-(4-methyl-2-oxopiperazin-1-yl)piperidin-1-yl)phenyl) acrylamide]	≤ 10	10 to 50	≤ 10	10 to 50
C=CC(=O)Nc1cc(N2CCC(N3CCN(C(C)=O)CC3)CC2)ccc1Nc1ncc(C#N)c(Nc2ccccc2OC(C)C)n1 [Example 50, N-(5-(4-(4-acetylpiperazin-1-yl)piperidin-1-yl)-2-((5-cyano-4-((2-isopropoxyphenyl)amino)pyrimidin-2-yl)amino)phenyl) acrylamide]	≤ 10	≤ 10	≤ 10	10 to 50
C=CC(=O)Nc1cc(N2CCC(N3CCCC3)CC2)c(F)cc1Nc1ncc(C#N)c(Nc2ccccc2OC(C)C)n1 [Example 17, N-(2-((5-cyano-4-((2-isopropoxyphenyl)amino)pyrimidin-2-yl)amino)-4-fluoro-5-(4-(pyrrolidin-1-yl)piperidin-1-yl)phenyl) acrylamide]	≤ 10	10 to 50	≤ 10	10 to 50
C=CC(=O)Nc1cc(N2CCC(N3CCC3)CC2)ccc1Nc1ncc(C#N)c(Nc2ccccc2OC(C)C)n1 [Example 70, N-(5-(4-(azetidin-1-yl)piperidin-1-yl)-2-((5-cyano-4-((2-isopropoxyphenyl)amino)pyrimidin-2-yl)amino)phenyl) acrylamide]	≤ 10	≤ 10	≤ 10	50 to 100
C=CC(=O)Nc1cc(N2CCC(N3CCCC3)CC2)ccc1Nc1ncc(C#N)c(Nc2ccccc2OC(C)C)n1 [Example 3, N-(2-((5-cyano-4-((2-isopropoxyphenyl)amino)pyrimidin-2-yl)amino)-5-(4-(pyrrolidin-1-yl)piperidin-1-yl)phenyl) acrylamide]	≤ 10	≤ 10	≤ 10	10 to 50

— patent US12582654B2, “Cyano-substituted pyridine and cyano-substituted pyrimidine compound and preparation method therefor and application thereof” (BEIJING SCITECH-MQ PHARMACEUTICALS LIMITED, priority 2019, dated 2026)
